Reference: patent US8965708B2, “Method for the treatment of acquired lymphedema” (The Board of Trustees of the Leland Stanford Junior …, priority 2006, dated 2015)
Entries after “also recorded” stand apart in the source; their conditions may differ.

Tests used:
[1] = tested on: cytokine levels in tail skin; assay: Tissue cytokine assays (Luminex) in tail skin homogenates; type: in vivo, mouse
Method: Cytokine levels in tail skin were measured in normal controls and mice with untreated, NSAID-treated, and sTNF-R1-treated lymphedema (n=3 per group) sacrificed on postoperative day 7. The Luminex LabMap200 System was used to measure the levels of 42 cytokines from the supernatant of tissue homogenates. Multiplex cytokine kits were purchased from Panomics (Fremont, Calif.), and the assay was performed according to the manufacturer's recommendation with the following modifications: 25-50 μl of samples, standards, and controls were added in duplicate to 96-well filter plates pre-configured with a panel of anti-cytokine antibodies covalently linked to unique polystyrene beads. The plate was incubated overnight at 4° C. in the dark with shaking at 500 rpm, vacuum aspirated, and washed three times with 140 μl of wash buffer to remove unbound antigen. Biotinylated detection antibody solution (25 μl) was added to each well and incubated for 1 hour with shaking at 500 rpm at room temperature. The plate was incubated with 50 μl of streptavidin-phycoerythrin for 35 minutes and then with 120 μl of reading buffer for 3 minutes at room temperature with shaking. After laser excitation, digital images of the bead array were captured with a CCD camera and analyzed on a computer workstation with BeadView software.

patients with lymphedema [2] = assay: Human study: volume of fluid lost from affected limb after 90 days ketoprofen; type: in vivo; conditions: 75 mg orally twice or three times per day for 90 days
Method: FIG. 23. […] For the purposes of comparing bilateral results to unilateral results, volume lost in bilateral lymphedema was calculated by determining the total volume lost and dividing by 2.
Biopsies were taken pre- and post-treatment, and clinical responses were reassessed monthly. 44 participants were enrolled (FIG. 22), 38 of which had completed the study at the time the data was collected. Average age of the patient was 57 years+/−14 years (24-85 years of age). The average length of time that the patient had had lymphedema was 10+/−10 years (0.5-40 years). Lymphedema was due to the following: breast cancer (12 patients (27.3%)); cervical cancer (6 patients (13.6%)); uterine cancer (2 patients (4.5%)); ovarian cancer (2 patients (4.5%)); penile cancer (1 patient (2.3%)); Hodgkin's lymphoma (2 patients (4.5%)); trauma (5 patients (11.4%)); infection (3 patients (6.8%)); venous insufficiency (3 patients (6.8%)); May-Thurner syndrome (2 patients (4.5%)); primary lymphedema ([…]); other (2 patients (4.5%)).

[3] = Mass spectrometry of ketoprofen in tissue following topical administration; type: in vivo, mouse; conditions: topical preparation delivered daily to mice; mass spectrometry of biopsy
[4] = tested on: tail lymphedema in SKH-1 mice; assay: Histology and histomorphometric quantitation of epidermal thickness (Example 4); type: in vivo, mouse; conditions: for histological changes in mice with lymphedema: hematoxylin/eosin
Method: Immediately after sacrifice, 0.5-g sections of tail were harvested for histological analysis and RNA extraction. Sections extended from a point 4 mm proximal to the surgical incision to 8 mm beyond it. The specimens were fixed overnight in 4% paraformaldehyde, embedded in paraffin, cut into 5-μm sections, stained with hematoxylin and eosin (Richard-Allan Scientific, Kalamazoo, Mich.), and examined by light microscopy.
Epidermal thickness was measured serially using digital images of histology slides stained with hematoxylin and eosin. Processing and analysis were performed using Adobe Photoshop CS4 and ImageJ (http://rsbweb.nih.gov/ij) as previously described with modifications (Sanders J E, et al. Comput Methods Programs Biomed. 1999; 59:167-180). Quantitative measurements were imported to Prism 5 software (GraphPad Software Inc., La Jolla, Calif.) for statistical analysis and graphing.

[5] = tested on: CD11B+ cells and CD4+ helper T cells in affected tissue; assay: Human study: immunohistochemistry of CD11b+ and CD4+ cell infiltrates in biopsies; type: in vivo; conditions: 4th clinical follow up visit
Method: FIG. 26. […] 3 samples from each patient were analyzed by paired analysis: NL (biopsy from an unaffected limb), 1-LY (biopsy from affected limb), and 4-LY (4th clinical follow up visit).
FIG. 29. Quantification of CD4+ helper T cell involvement in lymphedema pathology. 3 samples from each patient were analyzed by paired analysis: NL (biopsy from an unaffected limb), 1-LY (biopsy from affected limb), and 4-LY (4th clinical follow up visit).
To determine the cellular basis for the lymphedema pathology, lymphedemous tissue was analyzed for the aberrant presence of immune cells.

[6] = tested on: TNF-α, MCP-1, VEGF-C, VEGF-D, VEGFR-3, Prox1, LYVE-1 expression; assay: Targeted gene expression analysis by quantitative real-time RT-PCR in tail skin; type: in vivo, mouse
Method: Primers and probes were from Assays-on-Demand (Applied Biosystems, Foster City, Calif.). cDNA was synthesized from 5 μg of total RNA with Taqman reverse-transcription reagents (Applied Biosystems) and amplified in triplicate at 50° C. for 2 minutes and 95° C. for 10 minutes, followed by 40 cycles of 95° C. for 15 seconds and 60° C. for 1 minute. Reactions without template and/or enzyme were used as negative controls. 18S ribosomal RNA served as an internal control. A standard curve derived from embryonic mouse RNA was plotted for each target gene by linear regression using SPSS software (v. 11.0, Applied Biosystems). RNA quantity was expressed relative to the corresponding 18S control. Fold differences were calculated by dividing the experimental results by the pooled normal results and were plotted on a log 10 scale.

Log Kow = type: physicochemical
patients with lymphedema [7] = assay: Human study: histology of cutaneous biopsies (Hematoxylin and Eosin, Sirius Red); type: in vivo; conditions: 90 days / 3 months after start of treatment
From the text: FIG. 24. Tissue architecture before and after ketoprofen treatment. (A) Cutaneous biopsies stained with Hematoxylin and Eosin. (B) Cutaneous biopsies stained with Hoechst. “Normal”: unaffected contralateral limb. “Lymphedema, Pre-Rx”: affected tissue at the start of treatment. “Lymphedema post-Rx”: affected tissue 90 days following treatment.
FIG. 25. […] Fibrotic response (thickening tissue, collagen deposition in dermis and subdermis) is quantified by measuring the mean pixel intensity of Sirius Red uptake. […] In lymphedemous tissue (LY), an increase in fibrotic tissue is observed. Three months after the start of treatment (Rx/NL), the tissue has returned to a healthy state. Y axis is the ratio of paired samples. “NL/NL”: fibrosis in unaffected tissue, normalized to the pixel intensity of Sirius Red uptake in the unaffected tissue. “LY/NL”: fibrosis at the start of treatment, normalized to the pixel intensity of Sirius Red uptake in the unaffected tissue. “Rx/NL”: fibrosis after 3 months treatment, normalized to the pixel intensity of Sirius Red uptake in the unaffected tissue.
Biopsies were taken pre- and post-treatment, and clinical responses were reassessed monthly. 44 participants were enrolled (FIG. 22), 38 of which had completed the study at the time the data was collected. Average age of the patient was 57 years+/−14 years (24-85 years of age). […]

[8] = tested on: gene expression in lymphedemous tissue; assay: Paired whole genome transcriptional profiling of human lymphedema (Agilent human array); type: in vivo; conditions: of the 8431 genes altered in lymphedema versus normal tissue
Method: Paired whole genome transcriptional profiling was performed using the Agilent human array (n=30). Expression profiles of untreated and post-treated lymphedemous tissue were compared to the normal cutaneous RNA from the same subject.

CD30 and IgE levels = assay: Human study: serum analysis of CD30 and IgE; type: in vivo; conditions: pre to post treatment
patients with lymphedema [9] = assay: Human study: participant outcomes following the clinical trial; type: in vivo
[10] = postoperative day 7, listed as NSAID
[11] = day 11, lymphedema mice, listed as NSAID
[12] = lymphedema mice, listed as NSAID

SMILES: CC(C(=O)O)c1cccc(C(=O)c2ccccc2)c1 (stereo not shown) [ketoprofen]
- MCP-1 tissue levels (protein) ([1]; postoperative day 7): further increased
- MCP-3 tissue levels (protein) [1, 10]: significantly reduced; also recorded: inhibited
- macrophage inflammatory protein 1a (MIP1a) tissue levels [1, 10]: inhibited
- TNF-α tissue levels (protein) ([1]; postoperative day 7, median fluorescence intensity): significantly higher
- fluid lost from the affected limb, unilateral lymphedema (average) (patients with lymphedema [2]): 354 milliliters
- fluid lost from one affected limb, bilateral lymphedema (average) (patients with lymphedema [2]; total volume lost divided by 2): 533 milliliters
- permeation of topically administered drug into skin layers [3]: permeates into the deepest layers of the skin
- epidermal thickness (ET) compared to untreated LY mice ([4]; FIG. 14B): significantly reduced
- epidermal thickness decreased, compared to untreated lymphedema mice ([4]; day 11): 47.0±5.1%
- histological changes in mice with lymphedema ([4]; day 11): substantial normalization from the untreated histology
- histological changes in mice with lymphedema ([4]; day 11, listed as NSAID): normalization of histological changes; also recorded: normalizes these pathological findings
- CD4+ cells in affected tissue after treatment [5]: absent
- CD11B+ cells in affected tissue after treatment [5]: absent; also recorded: returns CD11b counts to normal
- Prox1 expression ([6]; day 11, lymphedema mice): significant, parallel up-regulation
- TNF-α expression (mRNA) ([6]; day 11, lymphedema mice): further increased
- MCP-1 expression (mRNA) [6, 11]: significantly induced
- Prox1 expression [6, 11]: significantly induced
- TNF-α expression (mRNA) [6, 11]: significantly induced
- VEGF-C expression (mRNA) ([6]; lymphedema mice): significant upregulation
- VEGFR-3 expression ([6]; lymphedema mice): significantly upregulated
- VEGF-C expression (mRNA) [6, 12]: significant, parallel up-regulation; also recorded: significantly induced
- VEGFR-3 expression [6, 12]: significant, parallel up-regulation; also recorded: significantly induced
- VEGF-D expression (mRNA) ([6]; lymphedema mice, vs vehicle): significant upregulation
- Log Kow (Log Kow): 3.00
- tissue architecture, protein deposition and fibrosis in cutaneous biopsies (patients with lymphedema [7]): reversal of disease-associated protein deposition and fibrosis; also recorded: restoration in the tissue architecture; also recorded: abrogates the inflammation that leads to a fibrotic response in the skin
- fraction of altered genes displaying directional normalization after treatment [8]: 72%
- number of genes displaying directional normalization after treatment [8]: 6050
- serum CD30 amounts, average decrease after treatment (CD30 and IgE levels): 13%
- participants who describe the affected limb as normal in size (patients with lymphedema [9]): 2%
- participants who described relief from pain (patients with lymphedema [9]): 7%
- participants who discontinued chronic use of compression garments (patients with lymphedema [9]): 9%
- participants who elected to continue off-label treatment (patients with lymphedema [9]): 100%
- participants who noted that the affected limb feels lighter (patients with lymphedema [9]): 7%
- participants who noted that the compression garment is loose (patients with lymphedema [9]): 2%
